This is an account of results in patent US20100003217A1, “Compounds and Pharmaceutical Compositions for the Treatment of Viral Infections” (priority 2008, published 2010).

A short description of data set [1]: Incubation with monkey liver cytosol. The data set is classed as in vitro ADME. As to conditions: monkey cytosol 1 mg/mL, 2 hours, 10 μM. The procedure:
Pooled liver cytosol (1.0 mg protein/mL) suspended in incubation buffer (0.1 M potassium phosphate, pH 7.4) was incubated for 2 hours at 37° C. with 10 μM Compound 1 from a stock solution in DMSO (final DMSO concentration was 0.1%); reaction was initiated with the addition of test article. Incubations with no protein served as control. Reactions were terminated by the addition of 0.1 mL of stop solution (acetonitrile). The samples were vortex-mixed for 30 sec and then centrifuged at 10,000×g for 10 min. The supernatant was dried using a Labconco CentriVap concentrator and the dry residue reconstituted in water, transferred to an HPLC glass vial and analyzed by HPLC-UV method 2 (described above).
Metabolic stability of the proposed metabolites was conducted by incubating the chemically synthesized standards Compound 2, Compound 4 and Compound 3 as described above for Compound 1. When possible, formation of Compound 5 was verified by incubating samples with alkaline phosphatase (10 U) for 60 min at 37° C.

Data set [2] can be described thus: Metabolite profile in rat liver. The data set is classed as in vivo, male Sprague-Dawley rats. As to conditions: for concentration at 2 h / concentration at 6 h / concentration at 24 h: male, Sprague-Dawley, rat, liver; for Percent of Dose, Liver 24 h: after [14C]Compound 1. On the procedure:
Homogenates were prepared on dry ice in 70% methanol-30% water containing 20 mM EDTA and 20 mM EGTA (about 1× (w/v) weight of the liver) and were stored frozen. Pooled liver samples were prepared for all groups by combining a fixed percentage of the total weight of each individual animal sample homogenate for each group. Each pooled liver homogenate (3.77-5.02 g) was placed in a 50-mL polypropylene centrifuge tube and 16.0 mL of methanol:water (70:30) was added. The sample was vortexed for one minute, and then centrifuged at 11200×g for 20 minutes. The supernatant was transferred to a tube and total volume was measured. The extraction procedure was repeated three additional times. Radioactivity of each supernatant was determined by LSC of duplicate aliquots (100 μL each) for extraction recovery. Subsamples of all four extracts from each sample were taken for proportionate pooling. For Group 1, the subsamples were pooled before concentration and, for Group 2, each subsample was concentrated separately and then pooled due to the larger volumes involved. Each extract was completely dried or reduced to approximately 100 μL. Reconstitution was accomplished with methanol (20 μL) and sufficient volume of the aqueous mobile phase of HPLC method 2 such that the total volume of each reconstituted sample was 500 μL. Duplicate aliquots of the reconstituted samples were analyzed by LSC. Each sample was analyzed by HPLC method 2.
Percent of the administered dose (% AD) for parent drug and each metabolite at each collection period=(% of the total radioactivity in the sample attributed to the metabolite)*(total radioactivity expressed as % of the administered dose, recovered during the corresponding collection period).
Microgram equivalents/g for parent drug or metabolite at each collection period (% radioactivity for each metabolite)*(total μg equivalents/g during the corresponding collection period).
Liver homogenates were pooled for each time point for both dose groups by proportional mixing according to the weight of the samples from individual animals. The pooled samples were extracted and prepared for HPLC analysis as described above. The abundance of metabolites was determined as a % of the administered dose and as μg equivalent/g. The data are presented in Table 54, Table 55, Table 56 and Table 57, respectively. Metabolites R^1, R^8 and R^9 were characterized based on retention time.

Setting [3] is: group 1 (IV dose) pooled liver, 2 h.
Where [4] appears, read: group 1 (IV dose) pooled liver, 2 h (Table 56).
Where [5] appears, read: group 1 (IV dose) pooled liver, 6 h.
The mark [6] stands for this setting: group 1 (IV dose) pooled liver, 6 h (Table 56).
Where [7] appears, read: iv, 50 mg/kg, group 1 (IV dose) pooled liver, 2 h, read-out: liver concentration as μg equivalents/g.
Where [8] appears, read: iv, 50 mg/kg, group 1 (IV dose) pooled liver, 6 h, read-out: liver concentration as μg equivalents/g.
The mark [9] stands for this setting: rat liver, IV dose, 2 h (Group 1A).
The mark [10] stands for this setting: rat liver, IV dose, 6 h (Group 1B).
Where [11] appears, read: group 1 (IV dose) pooled liver, 24 h.
Where [12] appears, read: group 2 (PO dose) pooled liver, 2 h.
[13] abbreviates: group 2 (PO dose) pooled liver, 6 h.
[14] abbreviates: group 2 (PO dose) pooled liver, 24 h.

Like-named read-outs stand apart in the source and are kept apart here.

Turning to `C[C@@]1(O)[C@H](O)[C@@H](COP(=O)(O)NCc2ccccc2)O[C@H]1n1cnc2c(=O)[nH]c(N)nc21` [Compound 2, [(2R)-2-methyl-β-D-ribofuranosyl]guanine-N-benzylaminyl-5′-monophosphate], in data set [1], the “Residual compound following incubation with liver cytosol” value worked out at 0%.
`CC(C)(CO)C(=O)SCCOP(N)(=O)OC[C@H]1O[C@@H](n2cnc3c(=O)[nH]c(N)nc32)[C@](C)(O)[C@@H]1O` (mixture of isomers) [Compound 3, {9-[(2R)2-C-methyl-β-D-ribo-furanosyl]-guanin}-5′-yl-O-(hydroxy-tert-butyl-S-acyl-2-thioethyl) phosphoramidate]: the “Residual compound following incubation with liver cytosol” value in data set [1] turned out to be 99%.
As for `C[C@@]1(O)[C@H](O)[C@@H](COP(=O)(O)OP(=O)(O)OP(=O)(O)O)O[C@H]1n1cnc2c(=O)[nH]c(N)nc21` [Compound 7, [(2R)-2-methyl-β-D-ribofuranosyl]guanine 5′-triphosphate], the “% AD” value in data set [2] (setting [3]) stood at 0.05 % AD; in data set [2] (setting [5]), 0.04 % AD. Moreover, the “% HPLC (percent of HPLC peak area in the sample extract)” value in data set [2] (setting [3]) came to 0.29%; in data set [2] (setting [4]), 0.29%; in data set [2] (setting [5]) it was 0.35%; in data set [2] (setting [6]), 0.35%. For the same compound, the concentration at 2 h stood at 600 ng/g in data set [2] (setting [7]) and 600 ng/g in data set [2] (iv, 50 mg/kg, rat liver, IV dose, 2 h (Group 1A), read-out: liver metabolite concentration). In addition, the concentration at 6 h amounted to 480 ng/g in data set [2] (setting [8]) and 480 ng/g in data set [2] (iv, 50 mg/kg, rat liver, IV dose, 6 h (Group 1B), read-out: liver metabolite concentration). Further, the “liver metabolite, % of the administered dose” value (“liver metabolite, %” below) in data set [2] (setting [9]) is given as 0.05 % AD; in data set [2] (setting [10]), 0.04 % AD.
`C[C@@]1(O)[C@H](O)[C@@H](COP(=O)(O)OP(=O)(O)O)O[C@H]1n1cnc2c(=O)[nH]c(N)nc21` [Compound 6, [(2R)-2-methyl-β-D-ribofuranosyl]guanine 5′-diphosphate]: the “Percent of Dose, Liver 24 h” value is reported as 0.29% of Dose in data set [2] (IV) and 0.08% of Dose in data set [2] (Oral). The “% AD” value in data set [2] (setting [3]) was 3.35 % AD; in data set [2] (setting [5]) it was 2.04 % AD; in data set [2] (setting [11]), 0.29 % AD; in data set [2] (setting [12]), 0.04 % AD; in data set [2] (setting [13]) it was 0.06 % AD; in data set [2] (setting [14]), 0.08 % AD. The “% HPLC (percent of HPLC peak area in the sample extract)” value in data set [2] (setting [3]) came to 21.6%; in data set [2] (setting [4]) it was 21.6%; in data set [2] (setting [5]), 20.1%; in data set [2] (setting [6]), 20.1%; in data set [2] (setting [11]), 16.2%; in data set [2] (group 1 (IV dose) pooled liver, 24 h (Table 56)), 16.2%. The “% HPLC (percent of HPLC peak area in the sample extract)” value was found to be 22.6% in data set [2] (setting [12]); 22.6% in data set [2] (group 2 (PO dose) pooled liver, 2 h (Table 57)); 15.0% in data set [2] (setting [13]); 15.0% in data set [2] (group 2 (PO dose) pooled liver, 6 h (Table 57)); 46.1% in data set [2] (setting [14]); 46.1% in data set [2] (group 2 (PO dose) pooled liver, 24 h (Table 57)). The concentration at 2 h is 44400 ng/g in data set [2] (setting [7]); 1150 ng/g in data set [2] (po, 100 mg/kg, group 2 (PO dose) pooled liver, 2 h, read-out: liver concentration as μg equivalents/g); 1100 ng/g in data set [2] (po, 100 mg/kg, rat liver, PO dose, 2 h, read-out: liver metabolite concentration). The concentration at 6 h is 27500 ng/g in data set [2] (setting [8]); 1550 ng/g in data set [2] (po, 100 mg/kg, group 2 (PO dose) pooled liver, 6 h, read-out: liver concentration as μg equivalents/g); 1600 ng/g in data set [2] (po, 100 mg/kg, rat liver, PO dose, 6 h, read-out: liver metabolite concentration). Also, the concentration at 24 h stood at 3770 ng/g in data set [2] (iv, 50 mg/kg, group 1 (IV dose) pooled liver, 24 h, read-out: liver concentration as μg equivalents/g); 1880 ng/g in data set [2] (po, 100 mg/kg, group 2 (PO dose) pooled liver, 24 h, read-out: liver concentration as μg equivalents/g); 1900 ng/g in data set [2] (po, 100 mg/kg, rat liver, PO dose, 24 h, read-out: liver metabolite concentration). For the same compound, the “% of the total radioactivity in liver” value in data set [2] (rat liver, IV dose, 2, 6 and 24 h) was 16-22%; in data set [2] (rat liver, PO dose, 2, 6 and 24 h), 15-46%. Also, the “liver metabolite, %” value in data set [2] (setting [9]) was found to be 3.4 % AD; in data set [2] (setting [10]), 2.0 % AD; in data set [2] (rat liver, IV dose, 24 h), 0.29 % AD; in data set [2] (rat liver, IV dose, 24 h, listed as diphosphate), 0.3 % AD; in data set [2] (rat liver, PO dose, 2 h) it was 0.04 % AD; in data set [2] (rat liver, PO dose, 6 h), 0.06 % AD. Also, the “liver metabolite, %” value in data set [2] (rat liver, PO dose, 24 h) worked out at 0.08 % AD.
